Measurements reported in US20250052763A1, “COMPOSITIONS AND METHODS FOR IDENTIFYING LIGANDS OF ODORANT RECEPTORS” (Duke University, priority 2021, published 2025).

What follows are molecules tested on odorant receptors (ORs) expressed by OSNs (assay: pS6-IP-Seq: identification of ORs activated by odorants in vivo). Details: odorant at 3 mM; responsive = log2FC>0 and FDR<0.05.
Set-up: species or system mouse
Experimental: Phosphorylated S6 Ribosomal Capture (pS6-IP)
Mice used for pS6-IP were ˜3 weeks old, mixed sex, and littermates. Mice were killed by CO2 asphyxiation and cervical dislocation. Olfactory tissue was rapidly dissected in Buffer B (2.5 mM HEPES KOH pH 7.4, 0.63% glucose, 100 g/mL cycloheximide, 5 mM sodium fluoride, 1 mM sodium orthovanadate, 1 mM sodium pyrophosphate, 1 mM β-glycerophosphate, in Hank's balanced salt solution). Tissue pieces were then minced in 1.35 mL Buffer C (150 mM KCl, 5 mM MgCl2, 10 mM HEPES KOH pH 7.4, […], 2 mM DTT, 100 U/mL RNAsin, 100 µg/mL cycloheximide, protease inhibitor cocktail, 5 mM sodium fluoride, 1 mM sodium orthovanadate, 1 mM sodium pyrophosphate, 1 mM β-glycerophosphate) and subsequently transferred to homogenization tubes for steady homogenization at 250 rpm three times and at 750 rpm nine times at 4° C. […] This solution was mixed and then clarified at a max speed (17,000×g) for 10 min at 4° C. The resulting high-speed supernatant was transferred to a new tube where 20 μL was saved and transferred to a tube containing 350 L buffer RLT. To the remainder of the sample, 1.3 μL of 100 μg/mL cycloheximide, 27 μL of phosphatase inhibitor cocktail (250 mM sodium fluoride, 50 mM sodium orthovanadate, 50 mM sodium pyrophosphate, 50 mM β-glycerophosphate) and 6 μL of anti-pS6 antibody (Cell Signaling D68F8) were added. The sample was gently rotated for 90 min at 4° C. To prepare beads, 100 L of beads (Invitrogen 10002D) was washed three times with 900 L of buffer A (150 mM KCl, 5 mM MgCl2, 10 mM HEPES KOH pH 7.4, 10% NP40, 10% BSA), and once with 500 L of buffer C. Sample homogenate was added to the beads and incubated with gentle rotation for 60 min at 4° C. Following incubation, beads were washed with four times with 700 μL of buffer D (350 mM KCl, 5 mM MgCl2, 10 mM HEPES KOH pH 7.4, 10% NP40, 2 mM DTT, 100 U/mL RNAsin, 100 μg/mL cycloheximide, 5 mM sodium fluoride, 1 mM sodium orthovanadate, 1 mM sodium pyrophosphate, 1 mM β-glycerophosphate). During the final wash, beads were moved to room temperature, wash buffer was removed, and […] of buffer RLT was added. Beads were incubated in buffer RLT for 5 min at room temperature. Buffer RLT containing immunoprecipitated RNA was then eluted and stored at −80° C. until clean up using a kit (Qiagen 74004). cDNA was generated using 11 rounds of amplification with 10 ng RNA input. […] Libraries were sequenced on either HiSeq 2000/2500 (50 base pair single read mode) or NextSeq 500 (75 base pair single read mode) with 6-12 pooled indexed libraries per lane.
Reads mapping to Olfr290 were inferred from ENSMUSG00000070459, with the rationale that this gene model included ENSMUSG00000116179 plus untranslated regions. […] Intact Olfr genes with identifiable sequences were filtered, and p-values were then re-corrected by FDR. […] Raw and processed RNA-Seq datasets generated as part of this study are available from NCBI GEO at accession GSE185415.
First, ORs activated by a set of 61 odorants at various concentrations were determined by leveraging pS6-IP-Seq. […] ORs were considered odor-responsive if enrichment values (log2FC) were positive with a false discovery rate (FDR)<0.05.

Row | SMILES | ORs identified as responsive by pS6-IP-Seq
1 | C[C@]12CCC(=O)C[C@@H]1CC[C@@H]1[C@@H]2CC[C@]2(C)C=CC[C@@H]12 [androstenone] | no ORs were identified as responsive

Same assay, conditions: odorant at 1%; excluded from all analysis

Row | SMILES | number of ORs identified as responsive, relative to the mean
2 | CC(=O)c1ccccc1O [2′-hydroxyacetophenone] | more than five standard deviations away from the mean

Same assay, conditions: odorant at 1%; responsive = log2FC>0 and FDR<0.05

Row | SMILES | ORs identified as responsive by pS6-IP-Seq
3 | C=C(C)C1CCC(C)C(O)C1 (single isomer, unassigned; (+)) [(+)-dihydrocarveol] | no ORs were identified as responsive
4 | C=C(C)C1CCC(C)C(O)C1 (single isomer, unassigned; (-)) [(−)-dihydrocarveol] | no ORs were identified as responsive
5 | C=C1CC/C=C(\C)CC[C@@H]2[C@@H]1CC2(C)C [P-Caryophyllene] | no ORs were identified as responsive
6 | CSC [dimethyl sulfide] | no ORs were identified as responsive
7 | CC(C)=CCC/C(C)=C/CO [geraniol] | no ORs were identified as responsive
8 | c1ccc2[nH]ccc2c1 [indole] | no ORs were identified as responsive
9 | CCC(=O)O [propionic acid] | no ORs were identified as responsive
